One may read the melting point as the temperature, or range, at which the solid turns liquid. Usually inhibition stands for the relative decrease from the control value, in per cent.

Numbering of substitutions follows the chain as printed.

Consider ten compounds from patent publication US7649001B2.

Data set [1] has as its system Human prostate cancer cell strain LNCaP-FGC. The experiment in a line: cells. The class given is cell-based. The conditions noted are these: 72 h, read-out: Promotion rate (%) on PSA production at 100 nM.
Data set [2] has as its target T1, wild type androgen receptor (AR) (Homo sapiens, UniProt P10275).
T1 sequence (P10275 1-920): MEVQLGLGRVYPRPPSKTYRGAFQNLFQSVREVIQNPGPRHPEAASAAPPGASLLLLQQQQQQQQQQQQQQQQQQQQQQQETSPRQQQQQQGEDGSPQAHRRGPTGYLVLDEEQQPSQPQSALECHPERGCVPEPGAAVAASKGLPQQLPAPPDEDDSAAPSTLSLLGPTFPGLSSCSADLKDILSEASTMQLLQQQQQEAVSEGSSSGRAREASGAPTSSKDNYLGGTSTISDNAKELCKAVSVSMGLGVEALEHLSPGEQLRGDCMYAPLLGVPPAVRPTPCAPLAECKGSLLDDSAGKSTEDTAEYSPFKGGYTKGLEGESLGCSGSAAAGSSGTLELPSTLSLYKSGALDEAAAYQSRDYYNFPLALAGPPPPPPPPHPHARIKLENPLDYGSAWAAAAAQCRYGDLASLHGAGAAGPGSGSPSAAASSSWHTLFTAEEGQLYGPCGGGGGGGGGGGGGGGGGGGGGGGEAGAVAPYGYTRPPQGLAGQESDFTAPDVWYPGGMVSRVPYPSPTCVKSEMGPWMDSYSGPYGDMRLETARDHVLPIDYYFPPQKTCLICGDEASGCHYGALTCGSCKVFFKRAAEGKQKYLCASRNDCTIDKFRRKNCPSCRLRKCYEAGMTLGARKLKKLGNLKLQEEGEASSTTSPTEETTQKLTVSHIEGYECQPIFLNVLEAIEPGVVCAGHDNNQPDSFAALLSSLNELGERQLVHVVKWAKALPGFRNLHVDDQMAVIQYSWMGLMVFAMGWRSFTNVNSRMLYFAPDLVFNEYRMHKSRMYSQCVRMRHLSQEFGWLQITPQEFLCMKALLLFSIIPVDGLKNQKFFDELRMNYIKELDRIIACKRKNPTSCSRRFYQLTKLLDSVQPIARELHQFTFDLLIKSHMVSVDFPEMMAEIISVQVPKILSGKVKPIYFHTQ
The experiment in a line: AR-binding inhibition test (wild type). To be noted: read-out: Inhibition rate (%) at 100 nM Wild type.

The target of data set [3] is T2, LNCaP type mutant androgen receptor (AR) (Homo sapiens, UniProt P10275, T878A).
T2 sequence (P10275 1-920 T878A): T1 sequence (P10275 1-920) with T878A
The experiment in a line: AR-binding inhibition test (LNCaP type). The conditions noted are these: read-out: Inhibition rate (%) at 100 nM LNCaP type.

With `N#Cc1ccc(N2CCC(CCO)C2)c2ccsc12` (stereo not shown) [Compound 101, 4-[3-(2-hydroxyethyl)-1-pyrrolidinyl]-1-benzothiophene-7-carbonitrile], the melting point was 109 to 111 °C. Moreover, the activation at 0.1 µM in data set [1] was 86%. For the same compound, in data set [2], the inhibition at 0.1 µM amounted to 93%. Moreover, the inhibition at 0.1 µM in data set [3] is 97%.

`N#Cc1ccc(N2CCC(CO)CC2)c2ccccc12` [Compound 30, 4-[4-(hydroxymethyl)-1-piperidinyl]-1-naphthonitrile] came in with a melting point of 135 to 136 °C. Moreover, the activation at 0.1 µM in data set [1] amounted to 100%. In data set [2], the inhibition at 0.1 µM was determined as 105%. Besides, the inhibition at 0.1 µM in data set [3] was 113%.

In turn, `CC1CCCN1c1ccc(C#N)c2occc12` (stereo not shown) [Compound 95, 4-(2-methyl-1-pyrrolidinyl)-1-benzofuran-7-carbonitrile] had a melting point of 82 to 83 °C. Besides, the inhibition at 0.1 µM in data set [2] was 92%. The inhibition at 0.1 µM in data set [3] turned out to be 105%.

The compound `N#Cc1ccc(N2CCSCC2)c2ccccc12` [Compound 8, 4-(4-thiomorpholinyl)-1-naphthonitrile] returned a melting point of 130 to 131 °C. The activation at 0.1 µM in data set [1] came out at 71%. Also, in data set [2], the inhibition at 0.1 µM is 92%. In data set [3], the inhibition at 0.1 µM was 96%.

On to `N#Cc1ccc(N2CCC(CCO)CC2)c2ccccc12` [Compound 78, 4-[4-(2-hydroxyethyl)-1-piperidinyl]-1-naphthonitrile], for which the melting point was 128 to 129 °C. In addition, in data set [1], the activation at 0.1 µM was 89%. Besides, in data set [2], the inhibition at 0.1 µM turned out to be 92%. Also, the inhibition at 0.1 µM in data set [3] was 97%.

In turn, `N#Cc1ccc(N2CCC(O)C2)c2ccccc12` (stereo not shown) [Compound 18, 4-(3-hydroxy-1-pyrrolidinyl)-1-naphthonitrile] showed a melting point of 138 to 139 °C. In addition, in data set [2], the inhibition at 0.1 µM was 96%. In data set [3], the inhibition at 0.1 µM was found to be 79%.

The compound `C[C@H]1C[C@@H](O)CN1c1ccc(C#N)c2sccc12` [Compound 109, 4-[(2S,4R)-4-hydroxy-2-methyl-1-pyrrolidinyl]-1-benzothiophene-7-carbonitrile] registered a melting point of 102 to 103 °C. For the same compound, the activation at 0.1 µM in data set [1] is 86%. Moreover, the inhibition at 0.1 µM in data set [2] was determined as 98%. Besides, the inhibition at 0.1 µM in data set [3] came out at 99%.

As for `C[C@H]1[C@H](O)CCN1c1ccc(C#N)c2sccc12` [Compound 115, 4-[(2S,3R)-3-hydroxy-2-methyl-1-pyrrolidinyl]-1-benzothiophene-7-carbonitrile], the melting point is 145 to 146 °C. For the same compound, the activation at 0.1 µM in data set [1] amounted to 76%. In addition, the inhibition at 0.1 µM in data set [2] was found to be 93%. Also, the inhibition at 0.1 µM in data set [3] is 97%.

Take `N#Cc1ccc(N2CCCCC2)c2ccsc12` [Compound 73, 4-(1-piperidinyl)-1-benzothiophene-7-carbonitrile]: the melting point lay within 99 to 100 °C. In addition, the inhibition at 0.1 µM in data set [2] was determined as 95%. Further, the inhibition at 0.1 µM in data set [3] turned out to be 95%.

Compound `N#Cc1ccc(N2CCC(F)C2)c2ccsc12` (stereo not shown) [Compound 100, 4-(3-fluoro-1-pyrrolidinyl)-1-benzothiophene-7-carbonitrile] returned a melting point of 151 to 152 °C. Further, the activation at 0.1 µM in data set [1] turned out to be 82%. Moreover, in data set [2], the inhibition at 0.1 µM turned out to be 97%. In data set [3], the inhibition at 0.1 µM was found to be 92%.
